# Laboratory results from patent US5741794A, “Heterocyclic sulfonamide derivatives as antagonists of PAF and angiotensin II” (British Biotech Pharmaceuticals Limited, priority 1992, dated 1998).
# Target: T1, PAF receptor (Homo sapiens, UniProt P25105)
# T1 construct: from tissue; host or cells: human platelets (platelet concentrates from a hospital blood bank), lysed platelet membranes
# Assay: Inhibition of [^3 H]-PAF Receptor Binding (human platelet plasma membrane)
# Conditions: 0.5 nM [^3 H]-PAF, 0° C., 1 hour incubation, pH 7.0
# Protocol: Inhibition of [^3 H]-PAF Receptor Binding
# The inhibition of [^3 H]-PAF binding to human platelet plasma membrane by compounds of general formula I was determined by isotopic labelling and filtration techniques. Platelet concentrates were obtained from a hospital blood bank. These platelet concentrates (500-2500 mi.) were centrifuged at 800 rpm for 10 minutes in a SORVALL RC3B centrifuge to remove the red blood cells present. (The word SORVALL is a trade mark.) The supernatant was subsequently centrifuged at 3,000 rpm in a SORVALL RC3B centrifuge to pellet the platelets present. The platelet rich pellets were resuspended in a minimum volume of buffer (150 mM NaCl, 10 mM Tris, 2 mM EDTA, pH 7.5) and layered onto Ficoll-Paque gradients, 9 ml platelet concentrate to 2 ml Ficoll, and centrifuged at 1,900 rpm for 15 minutes in a SORVALL RT6000 centrifuge. This step removes the residual red blood cells and other nonspecific material such as lymphocytes from the preparation. The platelets which form a band between the plasma and the Ficoll were removed, resuspended in the above buffer and centrifuged at 3,000 rpm for 10 minutes in a SORVALL RT6000 centrifuge. The pelleted platelets were resuspended in buffer (10 mM Tris, 5 mM MgCl2, 2 mM EDTA, pH 7.0), snap freezed in liquid N2 and allowed to thaw slowly at room temperature in order to lyse the platelets. The latter step was repeated at least 3 times to ensure proper lysis. The lysed platelets were centrifuged at 3,000 rpm for 10 minutes in a SORVALL RT6000 centrifuge and resuspended in buffer. The latter step was repeated twice in order to remove any cytoplasmic proteins which may hydrolyse the platelet activating factor (PAF) receptor. The prepared platelet membranes may be stored at -70° C. After thawing the prepared membranes were centrifuged in a SORVALL RT6000 at 3,000 rpm for 10 minutes and resuspended in assay buffer.
# The assay was conducted by preparing a series of Tris-buffered solutions of the selected antagonist of predetermined concentrations. […] Each washed residue was dried under vacuum on a sampling manifold and placed into vials containing 20 ml of OPTIPHASE MP scintillation fluid and the radioactivity counted in a liquid scintillation counter. (The word OPTIPHASE is a trade mark.) Defining the counts for total binding with antagonist from a test sample as "TBA"; the counts for total binding from the control sample C1 as "TB"; and the counts for nonspecific binding from the control sample C2 as "NSB", the percent inhibition of each test antagonist can be determined by the following equation: […]
# T1 sequence (P25105 whole entry): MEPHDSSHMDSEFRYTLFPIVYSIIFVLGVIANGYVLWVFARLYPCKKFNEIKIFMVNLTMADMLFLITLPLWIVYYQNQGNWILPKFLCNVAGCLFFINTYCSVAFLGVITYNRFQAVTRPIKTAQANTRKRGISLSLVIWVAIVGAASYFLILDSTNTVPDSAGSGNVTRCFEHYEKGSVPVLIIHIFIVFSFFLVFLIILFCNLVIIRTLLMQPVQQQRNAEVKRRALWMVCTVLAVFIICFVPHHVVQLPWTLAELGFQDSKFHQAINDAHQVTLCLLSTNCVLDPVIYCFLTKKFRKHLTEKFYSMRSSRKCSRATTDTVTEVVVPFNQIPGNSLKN
row,Compound,IC50
1,"CCOC[C@H](CC(C)C)NS(=O)(=O)c1ccc(Cn2cnc3cccnc32)cc1 [Example 45A, N-4-(3H-Imidazo[4,5-b]pyridylmethyl)phenylsulphonyl-L-leucinyl ethyl ether]",20 nM
2,"CCCCc1nc(Cl)c(CO)n1Cc1ccc(S(=O)(=O)N[C@@H](CC(C)C)C(=O)OCC)cc1 [Example 4, N-4-(1H-2-Butyl-4-chloro-5-hydroxymethylimidazolylmethyl)phenylsulphonyl-L-leucine ethyl ester]",5 nM
3,"CCc1nccn1Cc1ccc(S(=O)(=O)N(C)[C@@H](CC(C)C)C(=O)OC)cc1 [Example 43, N-Methyl-N-4-(1H-2-ethylimidazolylmethyl)phenylsulphonyl-L-leucine methyl ester]",5 nM
4,"CCOC(=O)[C@H](CC(C)C)NS(=O)(=O)c1ccc(Cn2ccnc2-c2ccccc2)cc1 [Example 1, N-4-(1H-2-Phenylimidazolylmethyl)phenylsulphonyl-L-leucine ethyl ester]",7 nM
